Test results published in publication PMC12444472, “BCI inhibits MKP3 by targeting the kinase-binding domain and disrupting ERK2 interaction” (The Journal of Biological Chemistry, 2025).
Residue numbers refer to the chain shown, from its start.

Tests used:
MKP3 R89A = target: T1, MKP3 R89A (Homo sapiens, UniProt Q16828, R89A); experiment: MST affinity of MKP3 mutant; type: binding; details: full-length mutant
T1 construct: MKP3(1–381) (MKP3^FL); made in house; host or cells: Escherichia coli BL21(DE3)
T1 sequence (Q16828 1-381 R89A): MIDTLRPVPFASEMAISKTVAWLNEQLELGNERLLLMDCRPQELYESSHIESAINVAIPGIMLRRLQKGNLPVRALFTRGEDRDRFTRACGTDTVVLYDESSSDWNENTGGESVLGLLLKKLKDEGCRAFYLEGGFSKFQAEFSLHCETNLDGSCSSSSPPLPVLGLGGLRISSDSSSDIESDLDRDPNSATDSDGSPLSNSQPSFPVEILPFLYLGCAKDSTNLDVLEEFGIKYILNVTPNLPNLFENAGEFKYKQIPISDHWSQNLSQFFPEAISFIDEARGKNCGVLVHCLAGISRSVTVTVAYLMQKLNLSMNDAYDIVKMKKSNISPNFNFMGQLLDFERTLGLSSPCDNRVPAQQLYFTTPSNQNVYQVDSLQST
Description: (§1) MST measurements were performed using fluorescently labeled proteins and the inhibitor BCI (CAS: 1245792-51-1; TargetMol) on a Monolith instrument (NanoTemper Technologies). The RED–Tris–NTA second-generation dye was dissolved in MST buffer (20 mM Hepes, pH 7.4, 200 mM NaCl, and 0.05% Tween-20) to prepare a 5 μM stock solution. Fluorescent labeling of MKP proteins followed the standard protocol of the MO-L018 RED–Tris–NTA protein labeling kit, leveraging the His-tag–dye interaction.
(§2) The BCI compound was prepared as a 600 to 750 μM stock solution in MST buffer with 10% DMSO to enhance solubility, followed by a 16-point serial dilution. The diluted BCI solutions were thoroughly mixed with labeled MKP proteins (50 nM) at a 1:1 volume ratio, yielding a final volume of 10 μl. The reaction mixtures were incubated in the dark for 10 min at room temperature before being loaded into standard glass capillaries. Measurements were carried out on the Monolith instrument (100% LED, 40% IR laser power) with a 20 s laser on time. The normalized fluorescence values from triplicate measurements were averaged at each concentration and fitted to a 1:1 binding model using the KD model in MO.Affinity software (v3.0.5, NanoTemper Technologies) to determine the binding affinities between MKP proteins and the BCI inhibitor. The final reported Kd value represents the mean ± SD of Kd values obtained from three independent experiments, each fitted separately.
(§3) Figure S3. Affinity measurements of MKP3 mutants with BCI by MST. The binding affinities of full-length MKP3 mutants (E81G, R83G, R85G, R87G, and R89A) to BCI were determined by MST and are presented as mean ± SD (n = 3). Wild-type MKP3 (MKP3^WT) was included as a reference.

MKP3 T87G = target: T2, MKP3 T87G (Homo sapiens, UniProt Q16828, T87G); experiment: MST affinity of MKP3 mutant; type: binding; details: full-length mutant
T2 construct: MKP3(1–381) (MKP3^FL); made in house; host or cells: Escherichia coli BL21(DE3)
T2 sequence (Q16828 1-381 T87G): T1 sequence (Q16828 1-381 R89A) with T87G, A89R
Description: as §1, §2, §3

MKP3^FL = target: T3, MKP3^FL (Homo sapiens, UniProt Q16828); experiment: Phosphatase activity toward pNPP in the presence of ERK2; type: biochemical
T3 construct: MKP3(1–381) (MKP3^FL); made in house; host or cells: Escherichia coli BL21(DE3)
T3 sequence (Q16828 1-381): T1 sequence (Q16828 1-381 R89A) with A89R
Description: The phosphatase activity of MKP3 toward pNPP was measured using continuous spectrophotometric assays, either in the absence or the presence of ERK2 at a 1:1 M ratio with MKP3. Experiments were conducted at 25 °C in a reaction mixture with a total volume of 1.8 ml, containing 50 mM Mops (pH 7.0), 100 mM NaCl, and 0.1 mM EDTA. MKP3 (1 μM) was preincubated with varying concentrations of the inhibitor BCI for 5 min before initiating the reaction by adding pNPP at concentrations ranging from 0 to 14 mM. Continuous absorbance changes were recorded using a PerkinElmer LAMBDA 45 spectrophotometer equipped with a magnetic stirrer in the cuvette holder. The production of p-nitrophenol was monitored at 410 nm using an extinction coefficient of 18,000 M^-1 cm^-1.
Stock solutions of BCI (dissolved in DMSO) at different concentrations were prepared to maintain a constant DMSO concentration across all BCI concentrations in the phosphatase inhibition assays, thereby eliminating potential effects of varying DMSO levels on detection. Initial reaction rates were determined from the linear slope of progress curves, and the data were analyzed using nonlinear regression. Kinetic parameters (kcat and Km) were obtained by fitting the data to the Michaelis–Menten equation: v0 = kcat[E][S]/(Km + [S]). […]

O=C1/C(=C/c2ccccc2)C(NC2CCCCC2)c2ccccc21 (stereo not shown) [BCI, (E)-2-benzylidene-3-(cyclohexylamino)-2,3-dihydro-1H-inden-1-one] was tested, and the “affinity for BCI compared with MKP3^WT” value (MKP3 R89A) was “significantly reduced affinity”, the “affinity for BCI compared with MKP3^WT” value (MKP3 T87G) was “affinities similar to the WT” and the “ERK2-induced MKP3 activity relative to its initial level” value (MKP3^FL; BCI at molar concentration 20 times that of ERK2) was “one-seventh”. The “effect on MKP3's Michaelis constant (Km) for pNPP” value (MKP3^FL; ERK2 at 1:1 with MKP3^FL) was “did not significantly alter”.
